Measurements: paper PMC8151276, “An Integrated Approach toward NanoBRET Tracers for Analysis of GPCR Ligand Engagement” (Molecules, 2021)

What was measured:
Format in all cases: binding
[1] = target: T1, AVPR2 (Homo sapiens, UniProt P30518); assay: NanoBRET screen HiBiT-AVPR2 in HEK293; conditions: AVPR2
T1 construct: purchased Promega (in-house HiBiT-GPCR construct library, NanoBRET)
Description: (§1) Each tracer candidate was screened across the entire library of HiBiT-GPCR constructs using NanoBRET as the detection modality. As depicted in Figure 4A, the specificity of interactions was evaluated through decrease in BRET due to competitive displacement of a bound tracer by excess parental compound. Each tracer was analyzed for binding to each HiBiT-GPCR fusion in the absence and in the presence of competing parental compound. Briefly, HEK293 cells were transfected with HiBiT-GPCR constructs diluted into promoterless DNA to reduce expression and maximize translocation to the cell surface. Each tracer candidate was then screened at concentrations of 1 μM and 0.1 μM across cells expressing these fusions. Cells were treated for 1.5 h with tracer either alone or in the presence of 20 μM competing parental compound (i.e., control). BRET was measured upon addition of purified LgBiT and subsequent complementation with HiBiT genetically fused to a GPCR. The specificity of interactions was assessed through a decrease in BRET signal due to competitive displacement of the bound tracer. To further gauge the robustness of these interactions, the fold response over the control (i.e., BRETtracer/BRETcontrol) was calculated. We chose a 1.5-fold response, which translates to ≥7-fold signal over noise as the minimal threshold required to score an interaction as positive. […]. Below we highlight the screening results obtained for our exemplary fluorescent tracers based on Clozapine, Amitriptyline and AZD1283.
(§2) HiBiT-GPCR DNA constructs were diluted in 10 mM Tris pH 8 to a final concentration of 0.01 μg/μL, arrayed in 96-well plates and stored at −20 °C. For transfection, HEK293 cells were suspended in Opti-MEM (without phenol red) supplemented with 2% fetal bovine serum (Seradigm) and 100 units/mL penicillin–streptomycin (Gibco) at a final concentration of 220,000 cells/mL and dispensed into white 96-well plates at 90 μL/well. Subsequent transfections and screens were carried using an Agilent Bravo Automated Liquid Handling Platform. First, the 96-well HiBiT DNA arrays were diluted 25-fold in Opti-MEM (without serum or phenol red) to a final concentration of 0.0004 μg/μL and 20 μL of the diluted DNAs were transferred into new 96-well plates. Next, promoterless carrier DNA (1 μg/μL) was diluted 25-fold (0.04 μg/μL) and then dispensed into the diluted arrays at 20 μL/well. Following brief mixing, Viafect transfection reagent (Promega) diluted 16-fold into Opti-MEM was dispensed into the plates at 40 μL/well. After mixing by pipetting, plates were incubated for 10 min on the pipetting station deck. The DNA-transfection reagent complexes were then added to plates containing cells. To facilitate the screen, 10 μL of DNA-transfection reagent complexes were added in duplicates to the top 4 and bottom 4 rows, resulting in two identical 48-well arrays per plate. Plates with transfected cells were incubated for 18–20 h at 37 °C/5% CO2. A screen of each tracer across the entire library using two different concentrations requires duplicate plates of transfected cells. Depending on the number of tracers being screened, transfections can be scaled up using the same ratios. The next day, for each tracer, four 20× screening solutions in tracer dilution buffer (Promega) were prepared: two duplicates at final concentration of 20 μM and two duplicates at a final concentration of 2 μM. A competing unmodified compound was added to one of each duplicate at a final concentration of 400 μM. The four resulting solutions were diluted 4-fold in Opti-MEM without serum or phenol red to generate 5× solutions (5 µM and 0.5 µM tracer +/− 100 μM competing compound). To screen the library, a BioTek MultiFlo FX liquid dispenser was used to dispense 22.5 µL of tracer solution to the top 4 rows and 22.5 µL tracer + competing compound solution to the 4 bottom rows. Plates were briefly mixed on an orbital shaker and incubated for 1.5 h at room temperature. […]

[2] = target: T2, P2RY10 (Homo sapiens, UniProt O00398); assay: NanoBRET screen HiBiT-P2RY10 in HEK293; conditions: P2RY10
T2 construct: purchased Promega (in-house HiBiT-GPCR construct library, NanoBRET)
T2 sequence (O00398 whole entry, one chain of several): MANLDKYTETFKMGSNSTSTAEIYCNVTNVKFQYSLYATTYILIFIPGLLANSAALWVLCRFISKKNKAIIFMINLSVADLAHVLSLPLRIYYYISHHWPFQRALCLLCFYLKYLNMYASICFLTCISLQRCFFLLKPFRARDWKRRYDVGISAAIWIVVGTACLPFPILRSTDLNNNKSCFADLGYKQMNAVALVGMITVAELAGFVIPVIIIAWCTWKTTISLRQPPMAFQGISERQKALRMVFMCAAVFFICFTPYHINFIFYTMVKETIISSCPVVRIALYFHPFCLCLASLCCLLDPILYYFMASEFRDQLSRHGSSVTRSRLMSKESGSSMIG
Description: as §1, §2

[3] = target: T3, SSTR1 (Homo sapiens, UniProt P30872); assay: NanoBRET screen HiBiT-SSTR1 in HEK293; conditions: SSTR1
T3 construct: purchased Promega (in-house HiBiT-GPCR construct library, NanoBRET)
T3 sequence (P30872 whole entry): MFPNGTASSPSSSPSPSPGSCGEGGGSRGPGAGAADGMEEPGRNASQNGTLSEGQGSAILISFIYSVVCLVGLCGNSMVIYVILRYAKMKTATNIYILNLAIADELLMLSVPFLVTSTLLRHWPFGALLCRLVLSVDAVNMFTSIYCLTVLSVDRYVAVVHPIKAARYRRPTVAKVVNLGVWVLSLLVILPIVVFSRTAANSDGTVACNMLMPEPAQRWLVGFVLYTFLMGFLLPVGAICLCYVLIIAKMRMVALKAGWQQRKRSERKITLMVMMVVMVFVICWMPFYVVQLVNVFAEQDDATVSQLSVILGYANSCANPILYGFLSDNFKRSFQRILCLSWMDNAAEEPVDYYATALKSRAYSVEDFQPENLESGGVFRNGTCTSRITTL
Description: as §1, §2

T1 sequence (P30518 whole entry): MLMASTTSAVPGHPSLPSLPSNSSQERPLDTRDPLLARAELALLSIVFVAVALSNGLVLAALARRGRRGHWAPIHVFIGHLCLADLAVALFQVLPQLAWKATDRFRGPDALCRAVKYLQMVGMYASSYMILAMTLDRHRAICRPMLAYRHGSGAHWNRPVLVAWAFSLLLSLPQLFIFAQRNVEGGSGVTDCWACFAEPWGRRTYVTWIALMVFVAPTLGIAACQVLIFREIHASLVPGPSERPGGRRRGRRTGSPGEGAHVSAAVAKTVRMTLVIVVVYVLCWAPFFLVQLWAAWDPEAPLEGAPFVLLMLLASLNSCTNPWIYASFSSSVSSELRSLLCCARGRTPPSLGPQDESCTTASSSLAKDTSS

SMILES	NanoBRET Fold Response ([1]; tracer 0.1μM)	NanoBRET Fold Response ([1]; tracer 1μM)	NanoBRET Fold Response ([2]; tracer 0.1μM)	NanoBRET Fold Response ([2]; tracer 1μM)	NanoBRET Fold Response ([3]; tracer 0.1μM)	NanoBRET Fold Response ([3]; tracer 1μM)
Cc1nc2n(c(=O)c1CCN1CCC(c3noc4cc(F)ccc34)CC1)CCCC2OC(=O)NCCOCCOCCOCCOCCNC(=O)CCc1ccc2n1[B-](F)(F)[N+]1=C(c3ccc[nH]3)C=CC1=C2 (stereo not drawn) [Risperidone-2-NB590]	1.04	1.01	1.14	1.14	1.08	0.94
CC(C)N(CC[C@H](c1ccccc1)c1cc(CCNC(=O)CCOCCOCCOCCOCCNC(=O)CCc2ccc3n2[B-](F)(F)[N+]2=C(c4ccc[nH]4)C=CC2=C3)ccc1O)C(C)C [Tolterodine-2-NB590]	1.06	1.06	0.91	0.89	1.11	1.21
CC(C)N(CC[C@H](c1ccccc1)c1cc(CCNC(=O)c2ccc(CNC(=O)CCc3ccc4n3[B-](F)(F)[N+]3=C(c5ccc[nH]5)C=CC3=C4)cc2)ccc1O)C(C)C [Tolterodine-BZ-NB590]	0.97	1.05	1.34	0.76	1.15	1.20
CCCn1c(=O)c2[nH]c(-c3ccc(OCC(=O)NCCNC(=O)CCOCCNC(=O)c4ccc(CNC(=O)CCc5ccc6n5[B-](F)(F)[N+]5=C(c7ccc[nH]7)C=CC5=C6)cc4)cc3)nc2n(CCC)c1=O [XAC-3-NB590]	0.73	0.91	0.88	0.84	0.98	1.05
